Test results taken from US10221139B2, “Inhibitors of histone demethylases” (Gilead Sciences, Inc., priority 2012, dated 2019).

What was measured:
[1] = molecular target: T1, UTX (KDM6A) (Homo sapiens, UniProt O15550); assay: Histone lysine demethylase AlphaLISA assay, UTX; assay type: biochemical; details: substrate BK27M3
T1 construct: 919-1401; host or cells: E. coli
Procedure: (§1) Example 2: Histone Lysine Demethylase AlphaLISA Assays for IC50 Value Determination
(§2) Assays are performed analogously to the protocol described by Perkin Elmer (Roy et al. Perkin Elmer Technical Note: AlphaLISA #12, April 2011).
(§3) Enzymes are dissolved in enzyme buffer and incubated for 10 min before 5 μL is added to 5 μL 3% DMSO solutions of compounds in enzyme buffer. Incubated for another 10 minutes, before 5 μL substrate solution is added and the reaction mixture is incubated at room temperature for the given period. 10 μL acceptor beads, suspended at given dilutions in Epigenetic Buffer (Perkin Elmer AL008) from stock, are added and the suspension is incubated 60 minutes in the dark at room temperature, before 10 μL suspension (at the given dilutions in Epigenetic Buffer) of streptavidin donor beads (Perkin Elmer 6760002) in Epigenetic Buffer is added. After incubation at room temperature in the dark the plates are read. Reaction conditions are seen in Table 2b.

[2] = molecular target: T2, PLU1 (KDM5B) (Homo sapiens, UniProt Q9UGL1); assay: Histone lysine demethylase AlphaLISA assay, PLU1; assay type: biochemical; details: substrate H3K4M3B
T2 construct: 1-809; host or cells: E. coli
T2 sequence (Q9UGL1 1-809): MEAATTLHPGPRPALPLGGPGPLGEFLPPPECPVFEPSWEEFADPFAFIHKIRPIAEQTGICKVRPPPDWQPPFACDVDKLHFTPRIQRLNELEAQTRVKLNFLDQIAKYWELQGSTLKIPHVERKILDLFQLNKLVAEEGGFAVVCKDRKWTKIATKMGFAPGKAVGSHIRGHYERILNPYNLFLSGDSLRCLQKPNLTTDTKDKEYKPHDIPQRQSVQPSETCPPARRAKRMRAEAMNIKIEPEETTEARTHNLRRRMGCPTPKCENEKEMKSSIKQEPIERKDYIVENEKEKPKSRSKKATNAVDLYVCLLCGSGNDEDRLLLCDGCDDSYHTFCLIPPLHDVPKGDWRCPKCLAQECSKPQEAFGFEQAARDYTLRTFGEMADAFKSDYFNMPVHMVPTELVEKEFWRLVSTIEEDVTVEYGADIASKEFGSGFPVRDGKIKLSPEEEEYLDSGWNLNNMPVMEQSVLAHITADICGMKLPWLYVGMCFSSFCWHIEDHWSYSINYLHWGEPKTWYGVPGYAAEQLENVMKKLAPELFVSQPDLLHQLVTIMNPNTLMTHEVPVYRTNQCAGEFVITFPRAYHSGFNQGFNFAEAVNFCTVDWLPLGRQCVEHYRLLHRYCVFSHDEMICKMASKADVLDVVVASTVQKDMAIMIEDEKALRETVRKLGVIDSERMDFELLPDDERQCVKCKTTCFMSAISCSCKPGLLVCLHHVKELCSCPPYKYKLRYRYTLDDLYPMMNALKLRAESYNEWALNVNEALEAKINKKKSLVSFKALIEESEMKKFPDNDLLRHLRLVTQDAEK
Procedure: as §1, §2, §3

[3] = molecular target: T3, GASC1 (KDM4C, JMJD2C) (Homo sapiens, UniProt Q9H3R0); assay: Histone lysine demethylase AlphaLISA assay, GASC1; assay type: biochemical; details: substrate BK9M3
T3 construct: 1-349; host or cells: E. coli
T3 sequence (Q9H3R0 1-349): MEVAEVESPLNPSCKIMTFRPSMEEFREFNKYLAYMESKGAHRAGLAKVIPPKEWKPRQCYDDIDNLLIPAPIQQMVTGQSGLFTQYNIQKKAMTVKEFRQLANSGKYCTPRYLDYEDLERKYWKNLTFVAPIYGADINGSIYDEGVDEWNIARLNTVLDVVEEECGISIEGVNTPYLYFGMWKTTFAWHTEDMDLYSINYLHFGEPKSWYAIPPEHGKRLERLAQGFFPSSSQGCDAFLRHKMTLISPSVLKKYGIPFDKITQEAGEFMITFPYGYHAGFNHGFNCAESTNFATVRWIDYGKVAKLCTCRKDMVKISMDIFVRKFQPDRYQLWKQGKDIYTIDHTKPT
Procedure: as §1, §2, §3

[4] = test system: MCF7 cells; assay: MCF7 cell proliferation assay (ATPlite); assay type: cell-based; details: Homo sapiens, 120 hours
Procedure: MCF7 cells were seeded at 1250 cells/well in 50 μl medium/well in black 96 well plates. Cells were incubated for 24 hours before addition of compound. Compounds were diluted in complete medium (50 μl/well) and added to the plates in duplicates. The total volume of medium in the wells was 100 μl, and the final concentration of DMSO 0.5%. Complete medium used was DMEM with GlutaMAX containing 10% FBS and pen/strep.
120 hours after addition of compounds, the plates were harvested and analyzed by ATPlite 1 Step (Perkin Elmer, cat no 6016739) according to the manufactures recommendation. Briefly, 100 μl ATP lite solution was added to each well, plates were vortexed at 700 rpm 2 minutes, followed by 20 minutes incubation in the dark, and then analyzed for luminescence on EnSpire 2300 Mulitilabel reader (Perkin Elmer). EC50 values were calculated using GraphPad Prism 6.

T1 sequence (O15550 919-1401): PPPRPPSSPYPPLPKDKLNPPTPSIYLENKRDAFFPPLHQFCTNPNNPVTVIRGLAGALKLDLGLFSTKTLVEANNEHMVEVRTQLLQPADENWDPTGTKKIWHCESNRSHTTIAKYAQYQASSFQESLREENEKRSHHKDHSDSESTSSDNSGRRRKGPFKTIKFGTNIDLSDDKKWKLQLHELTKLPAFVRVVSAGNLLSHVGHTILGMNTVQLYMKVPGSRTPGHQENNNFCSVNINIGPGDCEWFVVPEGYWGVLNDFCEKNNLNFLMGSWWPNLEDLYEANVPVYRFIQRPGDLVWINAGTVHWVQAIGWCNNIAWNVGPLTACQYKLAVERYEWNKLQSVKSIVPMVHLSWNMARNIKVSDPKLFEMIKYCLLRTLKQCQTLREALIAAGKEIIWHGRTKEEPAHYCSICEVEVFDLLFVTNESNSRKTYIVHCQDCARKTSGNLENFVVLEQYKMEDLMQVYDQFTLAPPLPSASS

| IC50 [1] | IC50 [2] | IC50 [3] | EC50 [4] | Compound |
| --- | --- | --- | --- | --- |
| ≥ 1000 nM | 100 to 1000 nM | < 100 nM |  | CCN(CCN(C)C)C(=O)CNCc1cc(C(=O)OC(C)CCN(C)C(=O)C(F)(F)F)ccn1 (centres unmarked) [#64, 4-(2,2,2-trifluoro-N-methylacetamido)butan-2-yl 2-{[({[2-(dimethylamino)ethyl](ethyl)carbamoyl}methyl)amino]methyl}pyridine-4-carboxylate] |
| < 100 nM | 100 to 1000 nM | 100 to 1000 nM |  | CCOC(=O)c1ccnc(CNCC(=O)N(CC)CCN(C)C)c1 [#65, ethyl 2-{[({[2-(dimethylamino)ethyl](ethyl)carbamoyl}methyl)amino]methyl}pyridine-4-carboxylate] |
| < 100 nM | 100 to 1000 nM | 100 to 1000 nM |  | C=CC(CCNC(=O)C(F)(F)F)OC(=O)c1ccnc(CNCC(=O)N(CC)CCN(C)C)c1 (centres unmarked) [#66, 5-(trifluoroacetamido)pent-1-en-3-yl 2-{[({[2-(dimethylamino)ethyl](ethyl)carbamoyl}methyl)amino]methyl}pyridine-4-carboxylate] |
| < 100 nM | 100 to 1000 nM | 100 to 1000 nM |  | C=CC(CCN(C)C(=O)C(F)(F)F)OC(=O)c1ccnc(CNCC(=O)N(CC)CCN(C)C)c1 (centres unmarked) [#67, 5-(2,2,2-trifluoro-N-methylacetamido)pent-1-en-3-yl 2-{[({[2-(dimethylamino)ethyl](ethyl)carbamoyl}methyl)amino]methyl}pyridine-4-carboxylate] |
| < 100 nM | 100 to 1000 nM | 100 to 1000 nM |  | CCCCCCCCCCCCCCCC(=O)OCC(COC(=O)c1ccnc(CNCC(=O)N(CC)CCN(C)C)c1)OC(=O)CCCCCCCCCCCCCCC (centres unmarked) [#69, 1-(2-{[({[2-(dimethylamino)ethyl](ethyl)carbamoyl}methyl)amino]methyl}pyridine-4-carbonyloxy)-3-(hexadecanoyloxy)propan-2-yl hexadecanoate] |
| < 100 nM | < 100 nM | 100 to 1000 nM |  | CCN(CCN(C)C)C(=O)CNCc1cc(C(=O)Nc2nccn2C)ccn1 [#89, 2-{[({[2-(dimethylamino)ethyl](ethyl)carbamoyl}methyl)amino]methyl}-N-(1-methyl-1H-imidazol-2-yl)pyridine-4-carboxamide] |
|  |  |  | 1000 to 50000 nM | O=C(O)c1ccnc(CNCC2CC2)c1 [drawing 257, 2-{[(cyclopropylmethyl)amino]methyl}pyridine-4-carboxylic acid] |
|  |  |  | 1000 to 50000 nM | CSCCNCc1cc(C(=O)O)ccn1 [drawing 258, 2-({[2-(methylsulfanyl)ethyl]amino}methyl)pyridine-4-carboxylic acid] |
|  |  |  | 1000 to 50000 nM | Cn1c(CNCc2cc(C(=O)O)ccn2)nc2ccccc21 [drawing 259] |
|  |  |  | 1000 to 50000 nM | C=CCN(CC=C)C(=O)CNCc1cc(C(=O)O)ccn1 [drawing 260, 2-[({[bis(prop-2-en-1-yl)carbamoyl]methyl}amino)methyl]pyridine-4-carboxylic acid] |
|  |  |  | 1000 to 50000 nM | CN(CCCc1nccn1C)C(=O)CNCc1cc(C(=O)O)ccn1 [drawing 261, 2-{[({methyl[3-(1-methyl-1H-imidazol-2-yl)propyl]carbamoyl}methyl)amino]methyl} pyridine-4-carboxylic acid] |
|  |  |  | 1000 to 50000 nM | COc1ccccc1CN1CCC(NC(=O)CNCc2cc(C(=O)O)ccn2)CC1 [drawing 262] |
|  |  |  | 1000 to 50000 nM | CCN(CCC#N)C(=O)CNCc1cc(C(=O)O)ccn1 [drawing 263, 2-[({[(2-cyanoethyl)(ethyl)carbamoyl]methyl}amino)methyl]pyridine-4-carboxylic acid] |
|  |  |  | 1000 to 50000 nM | CN(CCCNCc1cc(C(=O)O)ccn1)Cc1ccccc1F [drawing 264, 2-{[(3-{[(2-fluorophenyl)methyl](methyl)amino}propyl)amino]methyl}pyridine-4-carboxylic acid] |
|  |  |  | 1000 to 50000 nM | O=C(O)c1ccnc(CNCCCN2CCC(Cc3ccccc3)CC2)c1 [drawing 265, 2-({[3-(4-benzylpiperidin-1-yl)propyl]amino}methyl)pyridine-4-carboxylic acid] |
|  |  |  | 1000 to 50000 nM | O=C(O)c1ccnc(CNCCCNCCOc2ccccc2)c1 [drawing 266, 2-[({3-[(2-phenoxyethyl)amino]propyl}amino)methyl] pyridine-4-carboxylic acid] |
|  |  |  | > 50000 nM | CN(CCCCN(Cc1ccccc1)C1CC1)C(=O)CNCc1cc(C(=O)O)ccn1 [drawing 267, 2-({[({4-[benzyl(cyclopropyl)amino]butyl)(methyl)carbamoyl)methyl]amino}methyl)pyridine-4-carboxylic acid] |
|  |  |  | 1000 to 50000 nM | CCN(CCN(C)C)C(=O)CNCc1cc(C(=O)O)ccn1 [drawing 268, 2-{[({[2-(dimethylamino)ethyl](ethyl)carbamoyl}methyl)amino]methyl}pyridine-4-carboxylic acid] |
|  |  |  | < 1000 nM | CCN(CC)CCCCNCc1cc(C(=O)Oc2ccc(OC)cc2)ccn1 [drawing 269, 4-methoxyphenyl 2-({[4-(diethylamino)butyl]amino}methyl)pyridine-4-carboxylate] |
|  |  |  | < 1000 nM | CCOC(=O)c1ccccc1OC(=O)c1ccnc(CNCCCCN(CC)CC)c1 [drawing 270, 2-(ethoxycarbonyl)phenyl 2-({[4-(diethylamino)butyl]amino}methyl)pyridine-4-carboxylate] |
|  |  |  | 1000 to 50000 nM | CCN(CC)CCCCNCc1cc(C(=O)OCCCN(C)C)ccn1 [drawing 271, 3-(dimethylamino)propyl 2-({[4-(diethylamino)butyl]amino}methyl)pyridine-4-carboxylate] |
|  |  |  | 1000 to 50000 nM | CCOC(=O)Nc1ccc(COC(=O)c2ccnc(CNCCCCN(CC)CC)c2)cc1 [drawing 272, {4-[(ethoxycarbonyl)amino]phenyl}methyl 2-({[4-(diethylamino)butyl]amino}methyl)pyridine-4-carboxylate] |
|  |  |  | < 1000 nM | CCN(CC)CCCCNCc1cc(C(=O)Oc2c(OC)cccc2OC)ccn1 [drawing 273, 2,6-dimethoxyphenyl 2-({[4-(diethylamino)butyl]amino}methyl)pyridine-4-carboxylate] |
|  |  |  | < 1000 nM | CCN(CC)CCCCNCc1cc(C(=O)Oc2c(C)cccc2C)ccn1 [drawing 274, 2,6-dimethylphenyl 2-({[4-(diethylamino)butyl]amino}methyl)pyridine-4-carboxylate] |
|  |  |  | 1000 to 50000 nM | CCN(CCN(C)C)C(=O)CNCc1cc(C(=O)Oc2ccc(OC)cc2)ccn1 [drawing 275, 4-methoxyphenyl 2-{[({[2-(dimethylamino)ethyl](ethyl)carbamoyl}methyl)amino]methyl}pyridine-4-carboxylate] |
|  |  |  | 1000 to 50000 nM | CCOC(=O)c1ccccc1OC(=O)c1ccnc(CNCC(=O)N(CC)CCN(C)C)c1 [drawing 276, 2-(ethoxycarbonyl)phenyl 2-{[({[2-(dimethylamino)ethyl](ethyl)carbamoyl}methyl)amino]methyl}pyridine-4-carboxylate] |

| Compound | IC50 [1] | IC50 [2] | IC50 [3] | EC50 [4] |
| --- | --- | --- | --- | --- |
| {4-[(ethoxycarbonyl)amino]phenyl}methyl 2-({[4-(diethylamino)butyl]amino}methyl)pyridine-4-carboxylate [#55] | ≥ 1000 nM | < 100 nM | 100 to 1000 nM |  |
